ChEMBL document CHEMBL6153133, “Discovery of Diphenyl Ether Derivatives as Novel BKCa Channel Activators: Structure-Activity Relationship, Cryo-EM Complex Structures, and In Vivo Animal Studies” (J Med Chem, 2025)
Values belong to the compound of their own block, whether it stands above or below them.

Key:
[1] = Half-life in male Sprague-Dawley rat at 10 mg/kg, iv by LC-MS/MS analysis; format: ADME, organism-based; conditions: in vivo
[2] = AUClast in male Sprague-Dawley rat at 10 mg/kg, iv by LC-MS/MS analysis; format: ADME, organism-based; conditions: in vivo
[3] = Clearance in male Sprague-Dawley rat at 10 mg/kg, iv by LC-MS/MS analysis; format: ADME, organism-based; conditions: in vivo
[4] = Volume of distribution at steady state in male Sprague-Dawley rat at 10 mg/kg, iv by LC-MS/MS analysis; format: ADME, organism-based; conditions: in vivo, read-out: Vdss
[5] = Cmax in male Sprague-Dawley rat at 10 mg/kg, po by LC-MS/MS analysis; format: ADME, organism-based; conditions: in vivo
[6] = Tmax in male Sprague-Dawley rat at 10 mg/kg, po by LC-MS/MS analysis; format: ADME, organism-based; conditions: in vivo
[7] = Half-life in male Sprague-Dawley rat at 10 mg/kg, po by LC-MS/MS analysis; format: ADME, organism-based; conditions: in vivo
[8] = AUClast in male Sprague-Dawley rat at 10 mg/kg, po by LC-MS/MS analysis; format: ADME, organism-based; conditions: in vivo
[9] = Oral bioavailability in male Sprague-Dawley rat at 10 mg/kg by LC-MS/MS analysis; format: ADME, organism-based; conditions: in vivo
Rattus norvegicus [10] = experiment: Reversal of urinary incontinence in male spontaneous hypertensive rat model assessed as decrease in urine frequency at 0.1 mg/kg, ip measured after 3 hrs relative to control; format: functional; set-up: scale not given: the % may be the effect or the level left
Rattus norvegicus [11] = experiment: Reversal of urinary incontinence in male spontaneous hypertensive rat model assessed as decrease in urine frequency at 0.3 mg/kg, ip measured after 3 hrs relative to control; format: functional; set-up: scale not given: the % may be the effect or the level left
Rattus norvegicus [12] = experiment: Reversal of urinary incontinence in male spontaneous hypertensive rat model assessed as decrease in total urine volume at 1 mg/kg, ip measured after 3 hrs relative to control; format: functional; set-up: scale not given: the % may be the effect or the level left
[13] = tested on: Calcium-activated potassium channel subunit alpha-1 (Homo sapiens), Q12791 [UNDEFINED MUTATION]; experiment: (§1) Activation of hyperactive human BKca channel G803D/N806K mutant transfected in human AD-293 cells assessed as maximum relative fluorescence value at 5 uM preincubated for 15 mins followed by Tl+ stimulus buffer addition and measured after 80 sec by Flexstation3 multimode microplate reader analysis relative to control; format: cell-based; conditions: time 980.0 sec
[14] = biological target: T1, Calcium-activated potassium channel subunit alpha-1 (Homo sapiens, UniProt Q12791); experiment: Activation of BKca channel (unknown origin) by cell-based fluorescence assay
[15] = tested on: Calcium-activated potassium channel subunit alpha-1 (Homo sapiens), Q12791 [UNDEFINED MUTATION]; experiment: as §1, with “assessed as fold change in maximum relative” for “assessed as maximum relative”, “reader analysis” for “reader analysis relative to control”; format: cell-based; conditions: filed as opener, time 980.0 sec
[16] = biological target: T1, Calcium-activated potassium channel subunit alpha-1; experiment: Activation of BKca channel (unknown origin) by cell based method
[17] = biological target: T1, Calcium-activated potassium channel subunit alpha-1; experiment: Activation of human KCa1.1 by patch clamp method
[18] = biological target: Calcium-activated potassium channel subunit alpha-1 (Homo sapiens, UniProt Q12791, G803D/N806K); experiment: Activation of hyperactive human BKca channel G803D/N806K mutant transfected in human AD-293 cells incubated for 20 to 30 mins by Flexstation3 multimode microplate reader analysis; format: cell-based
[19] = Aqueous solubility of compound in pure distilled water at >50 mg/ml; format: physicochemical; conditions: buffer
[20] = Aqueous solubility of compound in PBS at >50 mg/ml; format: physicochemical; conditions: buffer
[21] = Toxicity in male spontaneous hypertensive rat model at 100 mg/kg, po; format: organism-based; conditions: in vivo
Rattus norvegicus [22] = experiment: Reversal of urinary incontinence in male spontaneous hypertensive rat model assessed as decrease in urine frequency at 100 mg/kg, po measured after 3 hrs relative to control; format: functional; set-up: scale not given: the % may be the effect or the level left
Rattus norvegicus [23] = experiment: Reversal of urinary incontinence in male spontaneous hypertensive rat model assessed as decrease in urine volume at 100 mg/kg, po measured after 3 hrs relative to control; format: functional; set-up: scale not given: the % may be the effect or the level left
[24] = Half-life in male Dunkin Hartley guinea pig at 10 mg/kg, iv by LC-MS/MS analysis; format: ADME, organism-based, Cavia porcellus; conditions: in vivo
[25] = AUClast in male Dunkin Hartley guinea pig at 10 mg/kg, iv by LC-MS/MS analysis; format: ADME, organism-based, Cavia porcellus; conditions: in vivo
[26] = Clearance in male Dunkin Hartley guinea pig at 10 mg/kg, iv by LC-MS/MS analysis; format: ADME, organism-based, Cavia porcellus; conditions: in vivo
[27] = Volume of distribution at steady state in male Dunkin Hartley guinea pig at 10 mg/kg, iv by LC-MS/MS analysis; format: ADME, organism-based, Cavia porcellus; conditions: in vivo, read-out: Vdss
[28] = Cmax in male Dunkin Hartley guinea pig at 10 mg/kg, po by LC-MS/MS analysis; format: ADME, organism-based, Cavia porcellus; conditions: in vivo
[29] = Tmax in male Dunkin Hartley guinea pig at 10 mg/kg, po by LC-MS/MS analysis; format: ADME, organism-based, Cavia porcellus; conditions: in vivo
[30] = Half-life in male Dunkin Hartley guinea pig at 10 mg/kg, po by LC-MS/MS analysis; format: ADME, organism-based, Cavia porcellus; conditions: in vivo
[31] = AUClast in male Dunkin Hartley guinea pig at 10 mg/kg, po by LC-MS/MS analysis; format: ADME, organism-based, Cavia porcellus; conditions: in vivo
[32] = Oral bioavailability in male Dunkin Hartley guinea pig at 10 mg/kg by LC-MS/MS analysis; format: ADME, organism-based, Cavia porcellus; conditions: in vivo
[33] = Drug concentration in male Dunkin Hartley guinea pig lung at 10 mg/kg, po measured after 1 hrs by LC-MS/MS analysis; format: ADME, organism-based, Cavia porcellus; conditions: read-out: Ct
[34] = Drug concentration in male Dunkin Hartley guinea pig lung at 10 mg/kg, po measured after 4 hrs by LC-MS/MS analysis; format: ADME, organism-based, Cavia porcellus; conditions: read-out: Ct
[35] = Drug concentration in male Dunkin Hartley guinea pig brain at 10 mg/kg, po measured after 1 hrs by LC-MS/MS analysis; format: ADME, organism-based, Cavia porcellus; conditions: read-out: Ct
[36] = Drug concentration in male Dunkin Hartley guinea pig brain at 10 mg/kg, po measured after 4 hrs by LC-MS/MS analysis; format: ADME, organism-based, Cavia porcellus; conditions: read-out: Ct
[37] = Drug concentration in male Dunkin Hartley guinea pig blood at 10 mg/kg, po measured after 1 hrs by LC-MS/MS analysis; format: ADME, organism-based, Cavia porcellus; conditions: read-out: Ct
[38] = Drug concentration in male Dunkin Hartley guinea pig blood at 10 mg/kg, po measured after 4 hrs by LC-MS/MS analysis; format: ADME, organism-based, Cavia porcellus; conditions: read-out: Ct
[39] = Ratio of drug concentration in male Dunkin Hartley guinea pig lung to plasma at 10 mg/kg, po measured after 1 hrs by LC-MS/MS analysis; format: ADME, organism-based, Cavia porcellus
[40] = Ratio of drug concentration in male Dunkin Hartley guinea pig lung to plasma at 10 mg/kg, po measured after 4 hrs by LC-MS/MS analysis; format: ADME, organism-based, Cavia porcellus
[41] = Ratio of drug concentration in male Dunkin Hartley guinea pig brain to plasma at 10 mg/kg, po measured after 1 hrs by LC-MS/MS analysis; format: ADME, organism-based, Cavia porcellus; conditions: read-out: BPR
[42] = Ratio of drug concentration in male Dunkin Hartley guinea pig brain to plasma at 10 mg/kg, po measured after 4 hrs by LC-MS/MS analysis; format: ADME, organism-based, Cavia porcellus; conditions: read-out: BPR
Cavia porcellus [43] = experiment: Antitussive activity in citric acid-induced male Dunkin Hartley guinea pig cough model assessed as reduction in cough number at 8 mg/kg, po pretreated with compound for 4 hrs followed by citric acid administration and measured after 10 mins relative to control; format: functional; set-up: scale not given: the % may be the effect or the level left; conditions: time 250 min, 4.167 h
Cavia porcellus [44] = experiment: Antitussive activity in citric acid-induced male Dunkin Hartley guinea pig cough model assessed as reduction in cough number at 20 mg/kg, po pretreated with compound for 4 hrs followed by citric acid administration and measured after 10 mins relative to control; format: functional; set-up: scale not given: the % may be the effect or the level left; conditions: time 250 min, 4.167 h
Cavia porcellus [45] = experiment: Antitussive activity in citric acid-induced male Dunkin Hartley guinea pig cough model assessed as reduction in cough number at 50 mg/kg, po pretreated with compound for 4 hrs followed by citric acid administration and measured after 10 mins relative to control; format: functional; set-up: scale not given: the % may be the effect or the level left; conditions: time 250 min, 4.167 h
Cavia porcellus [46] = experiment: Antitussive activity in citric acid-induced male Dunkin Hartley guinea pig cough model assessed as reduction in cough number pretreated orally with compound for 4 hrs followed by citric acid administration and measured after 10 mins; format: functional; conditions: 4.167 h, route po, time 250 min

T1 sequence (Q12791 whole entry): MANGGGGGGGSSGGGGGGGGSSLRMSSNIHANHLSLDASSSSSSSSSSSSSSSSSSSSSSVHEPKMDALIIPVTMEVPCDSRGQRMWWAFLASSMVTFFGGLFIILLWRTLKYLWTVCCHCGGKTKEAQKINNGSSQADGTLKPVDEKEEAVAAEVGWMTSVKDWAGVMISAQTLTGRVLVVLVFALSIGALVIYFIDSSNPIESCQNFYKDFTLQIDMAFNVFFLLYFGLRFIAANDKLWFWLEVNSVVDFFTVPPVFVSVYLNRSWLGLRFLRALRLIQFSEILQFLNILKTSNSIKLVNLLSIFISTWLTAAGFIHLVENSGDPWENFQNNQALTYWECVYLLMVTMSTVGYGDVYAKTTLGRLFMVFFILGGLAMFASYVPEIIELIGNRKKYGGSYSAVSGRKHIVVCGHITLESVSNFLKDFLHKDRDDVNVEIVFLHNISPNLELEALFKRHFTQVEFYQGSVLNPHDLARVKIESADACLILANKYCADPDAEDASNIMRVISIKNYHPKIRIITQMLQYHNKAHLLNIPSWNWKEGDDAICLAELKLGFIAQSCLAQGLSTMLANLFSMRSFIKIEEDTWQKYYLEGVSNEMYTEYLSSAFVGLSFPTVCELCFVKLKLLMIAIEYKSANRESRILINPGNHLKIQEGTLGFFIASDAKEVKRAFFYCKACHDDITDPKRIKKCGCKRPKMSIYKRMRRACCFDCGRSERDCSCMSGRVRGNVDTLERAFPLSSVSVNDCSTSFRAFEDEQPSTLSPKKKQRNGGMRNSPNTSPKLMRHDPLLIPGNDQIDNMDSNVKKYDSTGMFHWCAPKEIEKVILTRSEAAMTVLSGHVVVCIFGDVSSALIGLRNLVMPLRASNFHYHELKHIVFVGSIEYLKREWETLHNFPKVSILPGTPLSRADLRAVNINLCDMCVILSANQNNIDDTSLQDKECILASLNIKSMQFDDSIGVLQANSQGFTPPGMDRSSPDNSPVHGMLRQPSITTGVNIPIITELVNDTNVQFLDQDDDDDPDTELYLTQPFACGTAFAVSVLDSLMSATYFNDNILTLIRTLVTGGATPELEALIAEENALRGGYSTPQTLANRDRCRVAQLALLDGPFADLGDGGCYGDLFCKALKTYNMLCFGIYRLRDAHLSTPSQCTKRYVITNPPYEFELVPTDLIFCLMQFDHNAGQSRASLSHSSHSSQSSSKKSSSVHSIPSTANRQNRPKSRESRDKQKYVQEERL
Sequence of Calcium-activated potassium channel subunit alpha-1 (Homo sapiens), Q12791 [UNDEFINED MUTATION] (Q12791 whole entry, looked up, stated change not applied): as the sequence (Q12791 whole entry) above
Sequence of Calcium-activated potassium channel subunit alpha-1 (Homo sapiens, UniProt Q12791, G803D/N806K) (Q12791 whole entry, looked up, stated change not applied): as the sequence (Q12791 whole entry) above

half-life [1]: 4.5 h
AUC(0-t) [2]: 1450 ng·h/mL
clearance [3]: 115 mL/min/kg
Vd [4]: 13.2 L/kg
Cmax [5]: 61.5 ng/mL
Tmax [6]: 4.2 h
half-life [7]: 3.9 h
AUC(0-t) [8]: 344 ng·h/mL
bioavailability [9]: 23.5%
SMILES: Cl.Nc1ccc(Oc2c(F)c(F)c(C(F)(F)F)c(F)c2F)c(O)c1
Activity (Rattus norvegicus [10]): 43%
Activity (Rattus norvegicus [11]): 65%
Activity (Rattus norvegicus [12]): 48.5%

Activity [13]: 14.4%
EC50 [14]: 7 µM
fold change (FC) [15]: 2.3
EC50 [16]: 7 µM
EC50 [17]: 0.4 µM
SMILES: FC(F)(F)c1cc(NC(=S)Nc2ccc(Br)cc2-c2nnn[nH]2)cc(C(F)(F)F)c1

EC50 [18]: 3.9 µM
SMILES: Oc1ccc(-c2onc(C(F)(F)F)c2-c2ccc(Cl)cc2)c(O)c1

Cmax [5]: 283 ng/mL
Tmax [6]: 0.4 h
half-life [7]: 7.1 h
AUC(0-t) [8]: 844 ng·h/mL
solubility [19]: soluble
solubility [20]: soluble
half-life [24]: 4 h
AUC(0-t) [25]: 1800 ng·h/mL
clearance [26]: 93.3 mL/min/kg
Vd [27]: 18.1 L/kg
Cmax [28]: 31.8 ng/mL
Tmax [29]: 1.8 h
half-life [30]: 4.7 h
AUC(0-t) [31]: 188 ng·h/mL
bioavailability [32]: 10.5%
concentration at 1 h [33]: 8160 ng/g
concentration at 4 h [34]: 13500 ng/g
concentration at 1 h [35]: 424 ng/g
concentration at 4 h [36]: 414 ng/g
concentration at 1 h [37]: 28 ng/mL
concentration at 4 h [38]: 23 ng/mL
Kp at 1 h [39]: 291
Kp at 4 h [40]: 587
Kp at 1 h [41]: 15
Kp at 4 h [42]: 18
SMILES: Cl.Cl.Oc1cc(NCCCCCN2CCOCC2)ccc1Oc1c(F)c(F)c(C(F)(F)F)c(F)c1F
Activity [21]: Non-toxic
Activity (Rattus norvegicus [22]): 61.4%
Activity (Rattus norvegicus [23]): 62.6%
Activity (Cavia porcellus [43]): 25.4%
Activity (Cavia porcellus [44]): 54.4%
Activity (Cavia porcellus [45]): 69.3%
ED50 (Cavia porcellus [46]): 11.8 mg/kg
